Data on 41 compounds can be found in US20050032646A1, “Agents for the regulation of gametophytic self-incompatibility and a control method for the breakdown of gametophytic self-incompatibility using the agents” (priority 2002, published 2005).

In the assay the test system is style-specific S RNase of Fuji apple. As to the kind of experiment: Inhibition of the activity of a style-specific S RNase by the agents. The assay is classed as biochemical. Conditions: for inhibiting effect for a style-specific S RNase: enzyme assay, result in words; for OD (2.0 mM): optical density at 260 nm (A260), agent 2.0 mM, no treatment 1.10. As for the experimental part:
Inhibition of S RNase activity by an agent of the present invention was measured as follows: The standard solution of 500 μL of 10 mM sodium phosphate (pH 7.0) with an agent (2.0 mM), and 500 μL of torula yeast rRNA (5 mg/mL) was pre-incubated for 10 min at 37° C. To the substrate solution, the 20 μL of the style-specific S RNase (200 ng) of Fuji apple was added, then the solution was incubated for 30 min at 37° C. A fraction of 200 μL was collected and 40 μL of stop buffer (ice-cold 25% HCIO4, 0.75% uranyl acetate) was added, then mixed and centrifuged at 12,000 rpm for 5 min. And 50 μL of the supernatant was diluted with 950 μL of dd H2O, then the solution was centrifuged and measured the optical density at 260 nm (A260) (Singh A. et al., Plant Physilolgy, 96: 61-68,1991).

In the case of `O=S(=O)([O-])[O-].[Ca+2]` [CaSO4, reference compound], the “inhibiting effect for a style-specific S RNase” value (“inhibiting effect” below) is given as “didn't show any positive inhibiting effect”.
In the case of `COCCOC(C)C(=O)[O-].COCCOC(C)C(=O)[O-].[Cu+2]` (centres unmarked) [Cu(II) 2-(2-methoxyethoxy)propionate, Cu(II) 2-(2-methoxyethoxy) propionate], the “OD (2.0 mM)” value is listed as 0.64.
Consider `CCCOCCOCCOCC(=O)[O-].CCCOCCOCCOCC(=O)[O-].[Cu+2]` [Cu(II) 2-(2-propoxyethoxy)ethoxyacetate, Cu(II) 2-(2-propoxyethoxy) ethoxyacetate], for which the “OD (2.0 mM)” value is reported as 0.67.
For the compound `COC(C)C(=O)[O-].COC(C)C(=O)[O-].[Cu+2]` (centres unmarked) [Cu(II) 2-methoxypropionate], the “OD (2.0 mM)” value is given as 0.72.
Regarding `CCCOC(C)C(=O)[O-].CCCOC(C)C(=O)[O-].[Cu+2]` (centres unmarked) [Cu(II) 2-propoxypropionate], the “OD (2.0 mM)” value is 0.72.
In the case of `COCCOCCOC(C)C(=O)[O-].COCCOCCOC(C)C(=O)[O-].[Cu+2]` (centres unmarked) [Cu(II) 2-{2-(2-methoxyethoxy)ethoxy} propionate], the “OD (2.0 mM)” value was determined as 0.61.
Turning to `COCCOCCOCCOCC(=O)[O-].COCCOCCOCCOCC(=O)[O-].[Cu+2]` [Cu(II) 2-{2-(2-methoxyethoxy)ethoxy}ethoxyacetate], the “OD (2.0 mM)” value is 0.66.
Regarding `CCOCCOc1ccc(S(=O)(=O)[O-])cc1.CCOCCOc1ccc(S(=O)(=O)[O-])cc1.[Cu+2]` [Cu(II) 4-(2-ethoxyethoxy) benzene sulfonate], the “OD (2.0 mM)” value came out at 0.72.
In the case of `COCCOCCOc1ccc(S(=O)(=O)[O-])cc1.COCCOCCOc1ccc(S(=O)(=O)[O-])cc1.[Cu+2]` [Cu(II) 4-{2-(2-methoxyethoxy)ethoxy} benzene sulfonate], the “OD (2.0 mM)” value stood at 0.68.
Regarding `CC(=O)[O-].CC(=O)[O-].[Cu+2]` [Cu(II) Acetate], the “OD (2.0 mM)” value amounted to 0.70.
Same read-out and setting: to `C=CC(=O)[O-].C=CC(=O)[O-].[Cu+2]` [Cu(II) Acrylate] belongs 0.69; to `O=S(=O)([O-])c1ccccc1.O=S(=O)([O-])c1ccccc1.[Cu+2]` [Cu(II) Benzene sulfonate], 0.72.
For `CCCC(=O)[O-].CCCC(=O)[O-].[Cu+2]` [Cu(II) Butyrate], the “OD (2.0 mM)” value turned out to be 0.69.
With `C[C@H](O)C(=O)[O-].C[C@H](O)C(=O)[O-].[Cu+2]` [Cu(II) L-lactate], the “OD (2.0 mM)” value was 0.72.
Take `CCOCC(=O)[O-].CCOCC(=O)[O-].[Cu+2]` [Cu(II) ethoxyacetate]: the “OD (2.0 mM)” value worked out at 0.72.
With `COCC(=O)[O-].COCC(=O)[O-].[Cu+2]` [Cu(II) methoxyacetate], the “OD (2.0 mM)” value stood at 0.72.
Still for that read-out and setting: to `Cc1ccc(S(=O)(=O)[O-])cc1.Cc1ccc(S(=O)(=O)[O-])cc1.[Cu+2]` [Cu(II) p-toluene sulfonate] belongs 0.72; to `CCCOCC(=O)[O-].CCCOCC(=O)[O-].[Cu+2]` [Cu(II) propoxyacetate], 0.73.
Regarding `O=C[O-].O=C[O-].[Cu+2]` [Cu(Il) Formate], the “OD (2.0 mM)” value was determined as 0.74.
`O=S(=O)([O-])[O-].[K+].[K+]` [K2SO4, reference compound]: the “inhibiting effect” value is given as “didn't show any positive inhibiting effect”.
The same measure, in the same setting: then `O=S(=O)([O-])[O-].[Li+].[Li+]` [Li2SO4, reference compound], with “didn't show any positive inhibiting effect”.
With `O=S(=O)([O-])[O-].[Na+].[Na+]` [Na2SO4, reference compound], the “inhibiting effect” value is on record as “didn't show any positive inhibiting effect”.
On to `COCCOC(C)C(=O)[O-].COCCOC(C)C(=O)[O-].[Zn+2]` (centres unmarked) [Zn(II) 2-(2-methoxyethoxy)propionate, Zn(II) 2-(2-methoxyethoxy) propionate], for which the “OD (2.0 mM)” value was 0.61.
Consider `CCCOCCOCCOCC(=O)[O-].CCCOCCOCCOCC(=O)[O-].[Zn+2]` [Zn(II) 2-(2-propoxyethoxy)ethoxyacetate, Zn(II) 2-(2-propoxyethoxy) ethoxyacetate], for which the “OD (2.0 mM)” value stood at 0.69.
Consider `COC(C)C(=O)[O-].COC(C)C(=O)[O-].[Zn+2]` (centres unmarked) [Zn(II) 2-methoxypropionate], for which the “OD (2.0 mM)” value is listed as 0.73.
Turning to `CCCOC(C)C(=O)[O-].CCCOC(C)C(=O)[O-].[Zn+2]` (centres unmarked) [Zn(II) 2-propoxypropionate], the “OD (2.0 mM)” value is recorded as 0.72.
Same read-out and setting: then `COCCOCCOCCOCC(=O)[O-].COCCOCCOCCOCC(=O)[O-].[Zn+2]` [Zn(II) 2-{2-(2-methoxyethoxy)ethoxy} ethoxyacetate], with 0.67.
On to `COCCOCCOC(C)C(=O)[O-].COCCOCCOC(C)C(=O)[O-].[Zn+2]` (centres unmarked) [Zn(II) 2-{2-(2-methoxyethoxy)ethoxy}propionate], for which the “OD (2.0 mM)” value is recorded as 0.62.
For `CCOCCOc1ccc(S(=O)(=O)[O-])cc1.CCOCCOc1ccc(S(=O)(=O)[O-])cc1.[Zn+2]` [Zn(II) 4-(2-ethoxyethoxy) benzene sulfonate], the “OD (2.0 mM)” value worked out at 0.72.
Take `COCCOCCOc1ccc(S(=O)(=O)[O-])cc1.COCCOCCOc1ccc(S(=O)(=O)[O-])cc1.[Zn+2]` [Zn(II) 4-{2-(2-methoxyethoxy)ethoxy}benzene sulfonate]: the “OD (2.0 mM)” value is 0.68.
Turning to `CC(=O)[O-].CC(=O)[O-].[Zn+2]` [Zn(II) Acetate], the “OD (2.0 mM)” value is listed as 0.71.
On to `O=S(=O)([O-])c1ccccc1.O=S(=O)([O-])c1ccccc1.[Zn+2]` [Zn(II) Benzene sulfonate], for which the “OD (2.0 mM)” value worked out at 0.74.
With `CCCC(=O)[O-].CCCC(=O)[O-].[Zn+2]` [Zn(II) Butyrate], the “OD (2.0 mM)” value is recorded as 0.68.
As for `O=C[O-].O=C[O-].[Zn+2]` [Zn(II) Formate], the “OD (2.0 mM)” value was 0.75.
As for `C[C@H](O)C(=O)O.C[C@H](O)C(=O)O.[Zn]` [Zn(II) L-lactate], the “OD (2.0 mM)” value was 0.73.
In the case of `CCOCC(=O)[O-].CCOCC(=O)[O-].[Zn+2]` [Zn(II) ethoxyacetate], the “OD (2.0 mM)” value was found to be 0.73.
For `C=C(C)C(=O)[O-].C=C(C)C(=O)[O-].[Zn+2]` [Zn(II) metacrylate], the “OD (2.0 mM)” value is given as 0.70.
With `COCC(=O)[O-].COCC(=O)[O-].[Zn+2]` [Zn(II) methoxyacetate], the “OD (2.0 mM)” value was 0.71.
In the case of `Cc1ccc(S(=O)(=O)[O-])cc1.Cc1ccc(S(=O)(=O)[O-])cc1.[Zn+2]` [Zn(II) p-toluene sulfonate], the “OD (2.0 mM)” value was 0.72.
Regarding `CCCOCC(=O)[O-].CCCOCC(=O)[O-].[Zn+2]` [Zn(II) propoxyacetate], the “OD (2.0 mM)” value is on record as 0.75.
With Ce2SO4 [reference compound], the “inhibiting effect” value is listed as “didn't show any positive inhibiting effect”.
